# Test results taken from patent US20060003980A1, “Cobalt(II) complexes as protein tyrosine kinase inhibitors” (priority 2004, published 2006).
# “Also recorded” adds a separate entry of the source. Like-named read-outs stand apart in the source and are kept apart here.
# How the values were obtained:
# FGF receptor (FGFr) = FGF receptor (FGFr) (Homo sapiens, UniProt P11362); assay: Tyrosine kinase activity of FGFr using poly E4Y and 32P-ATP; type: biochemical
# Protocol: Recombinant human Src was expressed using the baculovirus-insect cell system and purified as published (Budde et al., 1993). Recombinant Csk and the FGF receptor (FGFr) were expressed as glutathione-S-transferase fusion proteins using the pGEX expression vector and E. coli, and purified as described (Sun et al., 1995). The tyrosine kinase activity of Src, Csk and FGFr was determined using poly E4Y and ^32P-ATP. […] Poly E4Y is a synthetic peptide whose phosphorylation is measured in this assay by the addition of the radioactively labeled phosphate from the ATP (Budde et al., 1994). For screening assays, 50 μg/ml poly E4Y was used.
# Src = Src (Homo sapiens, UniProt P12931); assay: Tyrosine kinase activity of Src using poly E4Y and 32P-ATP; type: biochemical
# Protocol: (§1) Recombinant human Src was expressed using the baculovirus-insect cell system and purified as published (Budde et al., 1993). Recombinant Csk and the FGF receptor (FGFr) were expressed as glutathione-S-transferase fusion proteins using the pGEX expression vector and E. coli, and purified as described (Sun et al., 1995).
# (§2) The tyrosine kinase activity of Src, Csk and FGFr was determined using poly E4Y and ^32P-ATP. Briefly, enzymes were assayed in a reaction mixture consisting of 0.15 M EPPS-NaOH (pH 8.0) with 6 mM MgCl2, 0.2 mM γ^32P-ATP (0.2-0.4 mCi/μmol), 10% glycerol, 0.1% Triton X-100, and poly E4Y. Poly E4Y is a synthetic peptide whose phosphorylation is measured in this assay by the addition of the radioactively labeled phosphate from the ATP (Budde et al., 1994). For screening assays, 50 μg/ml poly E4Y was used.
# Csk = target: T1, Csk (Homo sapiens, UniProt P41240); assay: Tyrosine kinase activity of Csk using poly E4Y and 32P-ATP; type: biochemical
# T1 construct: GST (glutathione-S-transferase); made in house; host or cells: E. coli (pGEX vector)
# Protocol: as §1, §2
# cell growth = assay: Cell growth inhibition (FIG. 1); type: cell-based
# Description: FIG. 1 graphically illustrates that a stable cobalt-tyrosineamide identified as complex no.
# This indicates a requirement for both the tyrosine amide moiety and for the metal moiety.
# [1] = * = Extrapolated value from the graph
# Sequence of FGF receptor (FGFr) (P11362 398-822): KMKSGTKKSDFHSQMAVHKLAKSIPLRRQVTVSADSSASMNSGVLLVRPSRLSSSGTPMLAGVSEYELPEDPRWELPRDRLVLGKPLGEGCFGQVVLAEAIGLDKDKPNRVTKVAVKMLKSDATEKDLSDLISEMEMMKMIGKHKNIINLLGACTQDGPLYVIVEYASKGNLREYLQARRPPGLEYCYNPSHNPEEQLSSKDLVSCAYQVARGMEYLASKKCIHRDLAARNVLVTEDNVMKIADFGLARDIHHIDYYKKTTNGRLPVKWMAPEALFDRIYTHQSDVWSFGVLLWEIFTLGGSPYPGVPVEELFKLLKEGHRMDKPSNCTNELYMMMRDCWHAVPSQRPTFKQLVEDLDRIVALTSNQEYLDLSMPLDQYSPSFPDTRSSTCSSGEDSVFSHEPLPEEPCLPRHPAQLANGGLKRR
IC50 (FGF receptor (FGFr)) [µM],IC50 (Src) [µM],Compound,other results
125,–,O=C([O][Co][O]C(=O)c1ccccc1S)c1ccccc1S [Complex 34],–
45,35,CC(C)CC(N)C(N)=O.[Cl-].[Cl-].[Co+2] (centres unmarked) [Complex 19],–
41,95,CN1CCCN=Cc2ccccc2[O][Co][O]c2ccccc2C=NCCC1 [Complex 40],–
93,58,NC(=O)CCC(N)C(=O)[O][Co][Cl] (centres unmarked) [Complex 21],IC50 (Csk; [1]): 389 µM
–,79,N[C@@H]1CCCC[C@H]1N.[Cl-].[Cl-].[Co+2] (racemic) [Complex 30],IC50 (FGF receptor (FGFr); [1]): 123 µM
83,47,CC(=O)C=C([O-])c1ccccc1.CC(=O)C=C([O-])c1ccccc1.[Co+2] [Complex 43],–
14,9,Nc1ccccc1N.[Cl-].[Cl-].[Co+2] [Complex 25],IC50 (Csk; [1]): 210 µM
–,–,CC(=O)[O-].NC(=O)C(N)Cc1ccc(O)cc1.[Co+2].[OH-] (centres unmarked) [Complex 16],IC50 (Src; [1]): 285 µM
100,57,NC(=O)CCC(N)C(=O)[O][Co][Cl] (centres unmarked) [Complex 20],IC50 (Csk; [1]): 281 µM
38,–,CC(C)CC(N)C(N)=O.[Cl-].[Cl-].[Co+2] (centres unmarked) [Complex 18],IC50 (Src; [1]): 105 µM; IC50 (Csk; [1]): 211 µM
–,46,NC(=O)C(N)Cc1ccc(O)cc1.[OH][Co][Cl] (centres unmarked) [Complex 15],IC50 (Csk; [1]): 330 µM; IC50 (FGF receptor (FGFr); [1]): 180 µM
–,–,"Co[N,N-bis(salicylidene)dianiline] [Complex 39]",IC50 (Src; [1]): 133 µM; IC50 (FGF receptor (FGFr); [1]): 155 µM
–,66,[Cl][Co]1([Cl])[PH](c2ccccc2)(c2ccccc2)CC[PH]1(c1ccccc1)c1ccccc1 [Complex 38],–
–,–,NCC(=O)NO.[OH][Co][OH] [Complex 5],IC50 (Src; [1]): 259 µM
182,–,O=C([O-])c1ccccc1O.O=C([O-])c1ccccc1O.[Co+2] [Complex 32],–
–,100,NCCC(=O)NO.[OH][Co][OH] [Complex 8],IC50 (Csk; [1]): 150 µM
–,–,CC(=O)C=C(C)[O-].CC(=O)C=C(C)[O-].[Co+2] [Complex 41],IC50 (Src; [1]): 177 µM; IC50 (FGF receptor (FGFr); [1]): 233 µM
3,108,"[Co+2].[O-]c1ccccc1C=NCCN=Cc1ccccc1[O-] [Complex 35, Co[N,N-bis(salicylidene)ethylenediamine]]",IC50 (Csk): 92 µM
–,–,C[SH]1CCC(N)C(=O)[N](O)[Co]1[OH] (racemic) [Complex 4],IC50 (Src; [1]): 176 µM
24,–,NCCN.[Cl-].[Co+2].[OH-] [Complex 24],IC50 (Src; [1]): 215 µM
1,28,"[Co+2].[O-]c1ccccc1C=Nc1ccccc1N=Cc1ccccc1[O-] [Complex 36, Co[N,N-bis(salicylidene)1,2-phenylenediamine]]",IC50 (Csk; [1]): 128 µM
–,–,NC(=O)[C@@H](N)Cc1ccc(O)cc1 [tyrosine amide],cell growth inhibition (cell growth): not inhibitory; also recorded: neither free metal nor the tyrosine amide were inhibitory
20,28,NC(=O)C(N)Cc1ccc(O)cc1.[Cl-].[Cl-].[Co+2] (centres unmarked) [Complex 14],–
–,105,O=C(C=C(O)C(F)(F)F)C(F)(F)F [Complex 42],–
14,–,NC(Cc1ccc(O)cc1)C(=O)NO.[Co+2].[O-][Cl+3]([O-])([O-])[O-].[O-][Cl+3]([O-])([O-])[O-] (centres unmarked) [Complex 1],–
39,65,NCCNc1cccc2ccccc12.[Cl-].[Cl-].[Co+2] [Complex 26],–

Compound,IC50 (FGF receptor (FGFr)) [µM],IC50 (Src) [µM],other results
NCC(N)=O.[Cl-].[Cl][Co][Cl].[Na+] [Complex 17],22,56,IC50 (Csk; [1]): 218 µM
NC(=O)CCC(N)C(N)=O.[Cl][Co][Cl] (centres unmarked) [Complex 22],46,71,IC50 (Csk; [1]): 361 µM
NC(=O)C(N)Cc1c[nH]c2ccccc12.[O-][Cl+3]([O-])([O-])[O][Co][O][Cl+3]([O-])([O-])[O-] (centres unmarked) [Complex 13],54,24,IC50 (Csk): 77 µM
N[C@H](c1ccccc1)[C@@H](N)c1ccccc1.N[C@H](c1ccccc1)[C@@H](N)c1ccccc1.[Cl][Co][Cl].[Cl][Co][Cl] [Complex 27],17,7,IC50 (Csk): 59 µM
"O=Cc1ccccc1[O-].O=Cc1ccccc1[O-].[Co+2] [Complex 44, Co(salicylaldehyde)2]",–,113,IC50 (FGF receptor (FGFr); [1]): 148 µM
N[C@H](c1ccccc1)[C@H](N)c1ccccc1.N[C@H](c1ccccc1)[C@H](N)c1ccccc1.[Cl][Co][Cl].[Cl][Co][Cl] [Complex 31],98,55,IC50 (Csk): 50 µM
[Cl][Co]([Cl])([PH](c1ccccc1)(c1ccccc1)c1ccccc1)[PH](c1ccccc1)(c1ccccc1)c1ccccc1 [Complex 37],76,–,–
O=C(NO)c1ccccc1O.O=C(NO)c1ccccc1O.[Cl][Co][Cl] [Complex 33],2,6,IC50 (Csk): 92 µM
